No end group written: not given here.
How the values were obtained:
Escherichia coli = experiment: MIC determination, microtiter dilution; format: cell-based, Escherichia coli str. K12 substr. MG1655; settings: present study, two-fold dilution series in MHB, 37 °C, 24 h, turbidity at 560 nm, mean of three independent experiments
Procedure: CAMPs were designed and synthesized as described previously in our works. The minimum inhibitory concentrations (MICs) for the Gram-negative bacterium Escherichia coli and Gram-positive bacterium Bacillus subtilis were determined earlier or in the present study. The MIC values for Escherichia coli were the same or higher than those for Bacillus subtilis. The CAMP concentrations tested were in the range up to 100 μM.
Escherichia coli str. K12 substr. MG1655 (Invitrogen) and Bacilus subtilis str. 168HT (Vavilov Institute of General Genetics, Russian Academy of Sciences, Moscow, Russia) were grown in Luria–Bertani broth (Difco, BD Difco, Thermo Fisher Scientific Inc., Waltham, MA, USA) according to standard procedure. Bacteria were stored with 10% glycerol at −70 °C until use. MIC determination was carried out by growing bacteria in 96-well microtitration plates in the presence of a two-fold dilution series of the peptide using the standard microtiter dilution method. Briefly, single bacterial clones were cultured overnight in Mueller–Hinton broth (MHB, BD Difco, Thermo Fisher Scientific Inc., Waltham, MA, USA) at 150 rpm and 37 °C, then transferred to fresh MHB and cultured until the logarithmic growth phase. […] After incubation at 37 °C for 24 h, the antimicrobial susceptibility was estimated by turbidity measurement at 560 nm using a microplate reader. […]

erythrocytes [1] = experiment: Hemolysis assay, erythrocytes in PBS; format: cell-based, human; settings: 0.5 h, 37 °C
Procedure: Erythrocytes were incubated (0.5 h, 37 °C) with different CAMP concentrations ranging from 6.25 μM to 100 μM. Incubation conditions chosen were similar to those used in other studies. Following incubation, the samples were centrifuged, and the supernatant analyzed spectrophotometrically for hemoglobin at 414 nm and 540 nm. Absorption at 414 nm provides higher sensitivity. The results were the same no matter which wavelength was used to monitor for hemoglobin.
(§1) The hemolytic activity of CAMPs was determined using a hemolysis assay measuring hemoglobin released from damaged cells. A working erythrocyte suspension (in PBS) was prepared so that its ten-fold dilution gave an optical density of 0.4 at 800 nm. This working suspension corresponded to a cell density of about 30 × 10^6 cells/mL. Aliquots of 125 μL of CAMP solutions of different concentrations were added to Eppendorf tubes. […] The supernatant (200 μL) was transferred to the wells of a microplate, and the absorbance of hemoglobin was measured by a Thermo Electron Multiskan Ascent microplate reader (Thermo Fisher Scientific Inc., Waltham, MA, USA), with a test wavelength of 414 nm as well as 540 nm and a background wavelength of 690 nm. The hemolysis percentage was calculated using the following equation: Hemolysis (%) = {(sample absorbance − negative control)/(positive control − negative control)} × 100.

erythrocytes [2] = experiment: Hemolysis assay in the presence of human serum albumin (HSA); format: cell-based; settings: 50 μM peptide, 50 μM HSA, 0.5 h, 37 °C
Procedure: Given that the normal HSA concentration in plasma is 500–700 μM and the dilution of plasma in the final, cell-containing samples was 1:10, a final HSA concentration of 50 μM was applied. Then, 100 μM CAMP working solutions were made up in PBS or PBS containing 100 μM or 70 μM HSA to give final concentrations of 50 μM CAMP and 50 μM or 35 μM HSA.
as §1

[3] = preparation of 2 mM stock solution; dissolved with PBS containing 4% DMSO
Procedure: First, 2 mM stock solutions of CAMPs were prepared in PBS, except for the CAMPs pept_1 and pept_2. […] Its 2 mM solution was made up using PBS containing 4% DMSO (PBS/DMSO), which gave a final DMSO concentration not higher than 0.2% in any of experiments. […] Therefore, negative controls containing relevant concentrations of DMSO were run for pept_1 and pept_2, and DMSO contribution was eliminated by subtracting the measured value in the negative control samples from that in the test samples.

| Substance | MIC (E. coli) (Escherichia coli) [µM] | Hemolysis (erythrocytes [1]; 100 μM peptide in PBS, no plasma, Triton X-100 = 100%) | EC50 (erythrocytes [1]; hemolysis assay, rough estimate, read-out: Concentration at which 50% lysis was achieved, erythrocytes) [µM] | Inhibition of CAMP-induced hemolysis by HSA (erythrocytes [2]) | Solubility in PBS [3] |
| --- | --- | --- | --- | --- | --- |
| FRIMRILRVLK-NH2 [pept_2] | 10 | 10–15% | – | – | – |
| FRIMRILRVLKL-NH2 [pept_1] | – | – | 65 | nearly completely | poorly soluble in PBS |
